{
  "source": "patent US20150140109A1",
  "about": "“DOCETAXEL-BASED PROLONGED-RELEASE CANCER TREATMENT DRUG” (OY FILANA LTD, priority 2012, published 2015)",
  "system": "acinic cell carcinoma of the glandula mammaria of the NZB mouse Ca 755",
  "test": "Antitumor activity in mice inoculated with Ca755 mammary adenocarcinoma (tumor growth kinetics, lifetime)",
  "assay_type": "in vivo, C57B1/6 female mice",
  "protocol": "To investigate the antitumor activity of a new dosage form of docetaxel in the composition with PLGA 50/50 the acinic cell carcinoma of the glandula mammaria of the NZB mouse Ca 755 was chosen. As the comparison object free docetaxel substance was used. The experiments were carried out on C57B1/6 female mice with the body weight of 18-20 g.\nThe anti-tumor activity of the preparations under research was estimated on the basis of the comparative analysis of tumor growth kinetics and comparing the lifetime in test groups and control groups of animals.\nThe introduction of both the docetaxel-based prolonged-release drug and the free docetaxel was started 48 hours after tumor inoculation.",
  "data": [
    {"smiles": "CC(=O)O[C@@]12CO[C@@H]1C[C@H](O)[C@@]1(C)C(=O)[C@H](O)C3=C(C)[C@@H](OC(=O)[C@H](O)[C@@H](NC(=O)OC(C)(C)C)c4ccccc4)C[C@@](O)([C@@H](OC(=O)c4ccccc4)[C@H]21)C3(C)C", "note": "[docetaxel substance, docetaxel]", "values": [
      {"measurement": "period for which tumor growth inhibition above 50% is retained", "setting": "even for the dose of 20 mg/kg", "value": "≤ 17", "unit": "days"},
      {"measurement": "inhibiting effect upon the tumor growth", "setting": "introduction started 48 hours after tumor inoculation", "value": "strong inhibiting effect"}
    ]}
  ]
}
